Results: ChEMBL document CHEMBL5131449, “Synthetic Biology-Based Discovery of Diterpenoid Pyrones from the Genome of Eupenicillium shearii” (J Nat Prod, 2022)
Calls of active or inactive are those of the source. The calls are words filed in the database; no cut-off is given here.

target: Amyloid-beta precursor protein (Homo sapiens) (UniProt P05067); assay: Inhibition of HFIP-pretreated amyloid beta (1 to 42) (unknown origin) aggregation assessed as suppression of amyloid beta aggregation at 50 uM incubated for 24 hrs by Thioflavin T based fluorescence assay; assay type: cell-based
Sequence (P05067 whole entry): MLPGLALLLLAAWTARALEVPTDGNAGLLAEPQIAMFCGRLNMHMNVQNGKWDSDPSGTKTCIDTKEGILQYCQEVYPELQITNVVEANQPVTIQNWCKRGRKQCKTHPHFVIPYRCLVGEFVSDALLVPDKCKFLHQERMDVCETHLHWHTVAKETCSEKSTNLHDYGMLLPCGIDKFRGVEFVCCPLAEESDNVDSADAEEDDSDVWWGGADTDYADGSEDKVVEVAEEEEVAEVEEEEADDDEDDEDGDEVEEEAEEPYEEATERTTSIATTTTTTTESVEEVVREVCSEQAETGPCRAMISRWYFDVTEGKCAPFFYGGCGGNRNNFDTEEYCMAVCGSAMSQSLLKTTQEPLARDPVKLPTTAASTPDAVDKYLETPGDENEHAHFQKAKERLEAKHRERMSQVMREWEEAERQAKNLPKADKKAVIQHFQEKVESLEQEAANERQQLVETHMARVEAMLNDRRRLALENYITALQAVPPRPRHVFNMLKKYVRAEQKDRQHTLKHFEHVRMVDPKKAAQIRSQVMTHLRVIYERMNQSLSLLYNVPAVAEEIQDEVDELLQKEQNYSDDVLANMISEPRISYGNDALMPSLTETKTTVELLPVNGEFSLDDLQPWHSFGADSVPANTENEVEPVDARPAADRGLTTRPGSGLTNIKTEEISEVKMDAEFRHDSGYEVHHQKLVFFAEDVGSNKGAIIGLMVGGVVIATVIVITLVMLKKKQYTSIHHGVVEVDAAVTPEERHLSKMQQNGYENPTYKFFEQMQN

inhibition, active:
Cc1oc(=O)c2c(c1C)O[C@@]1(C)[C@H](O)[C@H](O)[C@H]3[C@@](C)(CC[C@H]4C(C)(C)[C@@]5(O)CC[C@@]43CO5)[C@@H]1C2
Cc1oc(=O)c2c(c1C)O[C@@]1(C)[C@H](O)[C@H](O)[C@@H]3[C@@]4(C)CCC(=O)C(C)(C)[C@@H]4CC[C@@]3(C)[C@@H]1C2
Cc1oc(=O)c2c(c1C)O[C@@]1(C)[C@H](O)[C@H](O)[C@H]3[C@@](C)(CC[C@H]4C(C)(C)[C@@H](O)CC[C@@]43CO)[C@@H]1C2
